# How the values were obtained:
# Assay type in all cases: functional
# Plasmodium berghei [1] = assay: Antimalarial activity against Plasmodium berghei NK65 infected in ICR mouse assessed as reduction in parasitemia at 57.2 mg/kg, po qd for 4 days by Diff-Quik staining based microscopic method (reference value: 0%); settings: 96 h, time 4 day
# Plasmodium berghei [2] = assay: Antimalarial activity against Plasmodium berghei NK65 infected in ICR mouse assessed as animal mean survival days at 57.2 mg/kg, po qd for 4 days (reference value: 6.2 +/- 0.5 day); settings: time 4 day
# Plasmodium berghei [3] = assay: Antimalarial activity against Plasmodium berghei NK65 infected in ICR mouse assessed as parasitemia at 57.2 mg/kg, po qd for 4 days by Diff-Quik staining based microscopic method (reference value: 28.4 +/- 10.2%); settings: time 4 day
# Plasmodium berghei [4] = assay: Antimalarial activity against Plasmodium berghei NK65 infected in ICR mouse assessed as parasitemia at 114.4 mg/kg, po qd for 4 days by Diff-Quik staining based microscopic method (reference value: 28.4 +/- 10.2%); settings: time 4 day
# Plasmodium berghei [5] = assay: Antimalarial activity against Plasmodium berghei NK65 infected in ICR mouse assessed as reduction in parasitemia at 114.4 mg/kg, po qd for 4 days by Diff-Quik staining based microscopic method (reference value: 0%); settings: 96 h, time 4 day
# Plasmodium berghei [6] = assay: Antimalarial activity against Plasmodium berghei NK65 infected in ICR mouse assessed as animal mean survival days at 114.4 mg/kg, po qd for 4 days (reference value: 6.2 +/- 0.5 day); settings: time 4 day
# Plasmodium berghei [7] = assay: Antimalarial activity against Plasmodium berghei NK65 infected in ICR mouse assessed as reduction in parasitemia at 54.7 mg/kg, po qd for 4 days by Diff-Quik staining based microscopic method (reference value: 0%); settings: 96 h, time 4 day
# Plasmodium berghei [8] = assay: Antimalarial activity against Plasmodium berghei NK65 infected in ICR mouse assessed as mean survival days at 54.7 mg/kg, po for 4 days (reference value: 6.2 day); settings: time 4 day
# Plasmodium berghei [9] = assay: Antimalarial activity against Plasmodium berghei NK65 infected in ICR mouse assessed as reduction in parasitemia at 57.5 mg/kg, po qd for 4 days by Diff-Quik staining based microscopic method (reference value: 0%); settings: 96 h, time 4 day
# Plasmodium berghei [10] = assay: Antimalarial activity against Plasmodium berghei NK65 infected in ICR mouse assessed as animal mean survival days at 57.5 mg/kg, po qd for 4 days (reference value: 6.2 +/-0.5 day); settings: time 4 day
# Plasmodium berghei [11] = assay: Antimalarial activity against Plasmodium berghei NK65 infected in ICR mouse assessed as parasitemia at 57.5 mg/kg, po qd for 4 days by Diff-Quik staining based microscopic method (reference value: 28.4 +/- 10.2%); settings: time 4 day
# Plasmodium berghei [12] = assay: Antimalarial activity against Plasmodium berghei NK65 infected in ICR mouse assessed as parasitemia at 115 mg/kg, po qd for 4 days by Diff-Quik staining based microscopic method (reference value: 28.4 +/- 10.2%); settings: time 4 day
# Plasmodium berghei [13] = assay: Antimalarial activity against Plasmodium berghei NK65 infected in ICR mouse assessed as reduction in parasitemia at 115 mg/kg, po qd for 4 days by Diff-Quik staining based microscopic method (reference value: 0%); settings: 96 h, time 4 day
# Plasmodium berghei [14] = assay: Antimalarial activity against Plasmodium berghei NK65 infected in ICR mouse assessed as animal mean survival days at 115 mg/kg, po qd for 4 days (reference value: 6.2 +/- 0.5 day); settings: time 4 day
# Plasmodium berghei [15] = assay: Antimalarial activity against Plasmodium berghei NK65 infected in ICR mouse assessed as reduction in parasitemia at 58.2 mg/kg, po qd for 4 days by Diff-Quik staining based microscopic method (reference value: 0%); settings: 96 h, time 4 day
# Plasmodium berghei [16] = assay: Antimalarial activity against Plasmodium berghei NK65 infected in ICR mouse assessed as animal mean survival days at 58.2 mg/kg, po qd for 4 days (reference value: 6.2 +/-0.5 day); settings: time 4 day
# Plasmodium berghei [17] = assay: Antimalarial activity against Plasmodium berghei NK65 infected in ICR mouse assessed as parasitemia at 58.2 mg/kg, po qd for 4 days by Diff-Quik staining based microscopic method (reference value: 28.4 +/- 10.2%); settings: time 4 day
# Plasmodium berghei [18] = assay: Antimalarial activity against Plasmodium berghei NK65 infected in ICR mouse assessed as parasitemia at 116.4 mg/kg, po qd for 4 days by Diff-Quik staining based microscopic method (reference value: 28.4 +/- 10.2%); settings: time 4 day
# Plasmodium berghei [19] = assay: Antimalarial activity against Plasmodium berghei NK65 infected in ICR mouse assessed as reduction in parasitemia at 116.4 mg/kg, po qd for 4 days by Diff-Quik staining based microscopic method (reference value: 0%); settings: 96 h, time 4 day
# Plasmodium berghei [20] = assay: Antimalarial activity against Plasmodium berghei NK65 infected in ICR mouse assessed as animal mean survival days at 116.4 mg/kg, po qd for 4 days (reference value: 6.2 +/- 0.5 day); settings: time 4 day
smiles,measurement,setting,value
COc1cc2nc(N3CCCC3)nc(NC(C)c3ccccc3)c2cc1OC.Cl (stereo not given),inhibition in vivo at 57.2 mg/kg,Plasmodium berghei [1],92.1%
same,MSD,Plasmodium berghei [2],12 days
same,Activity,Plasmodium berghei [3],2%
same,Activity,Plasmodium berghei [4],0%
same,inhibition in vivo at 114.4 mg/kg,Plasmodium berghei [5],> 99%
same,MSD,Plasmodium berghei [6],28.2 days
COc1cc2nc(Nc3ccncc3)nc(Nc3ccccc3C)c2cc1OC.Cl,inhibition in vivo at 54.7 mg/kg,Plasmodium berghei [7],60.8%
same,MSD,Plasmodium berghei [8],7.3 days
COc1cc2nc(N3CCCC3)nc(Nc3ccccc3C)c2cc1OC.Cl,inhibition in vivo at 57.5 mg/kg,Plasmodium berghei [9],53.9%
same,MSD,Plasmodium berghei [10],7 days
same,Activity,Plasmodium berghei [11],14.7%
same,Activity,Plasmodium berghei [12],11.6%
same,inhibition in vivo at 115 mg/kg,Plasmodium berghei [13],63.8%
same,MSD,Plasmodium berghei [14],14.5 days
CCCCNc1nc(N2CCCC2)nc2cc(OC)c(OC)cc12.Cl,inhibition in vivo at 58.2 mg/kg,Plasmodium berghei [15],95.5%
same,MSD,Plasmodium berghei [16],17.5 days
same,Activity,Plasmodium berghei [17],1.5%
same,Activity,Plasmodium berghei [18],0%
same,inhibition in vivo at 116.4 mg/kg,Plasmodium berghei [19],> 99%
same,MSD,Plasmodium berghei [20],11.6 days
